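Following 48 hours of exposure in 96-well plates, responses at five concentrations were used to interpolate endpoints linearly. Definition used: TGI = concentration required for complete inhibition of growth.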
Experiments:
Assay in all cases: NCI anticancer screen, dose series, 48 h
SF-268 CNS = tested on: SF-268 CNS
TK-10 renal = tested on: TK-10 renal
OVCAR-8 ovarian = tested on: OVCAR-8 ovarian
HCC-2998 colon = tested on: HCC-2998 colon
MCF7 breast = tested on: MCF7 breast
PC-3 prostate = tested on: PC-3 prostate
OVCAR-4 ovarian = tested on: OVCAR-4 ovarian
A549 NSCLC = tested on: A549 NSCLC
RXF 393 renal = tested on: RXF 393 renal
SK-OV-3 ovarian = tested on: SK-OV-3 ovarian
OVCAR-3 ovarian = tested on: OVCAR-3 ovarian
KM12 colon = tested on: KM12 colon
HL-60(TB) leukemia = tested on: HL-60(TB) leukemia
NCI/ADR-RES ovarian = tested on: NCI/ADR-RES ovarian
UACC-257 melanoma = tested on: UACC-257 melanoma
MDA-MB-231 breast = tested on: MDA-MB-231 breast
HCT-116 colon = tested on: HCT-116 colon
T-47D breast = tested on: T-47D breast
MALME-3M melanoma = tested on: MALME-3M melanoma

| Compound | TGI (SF-268 CNS) | TGI (TK-10 renal) | TGI (OVCAR-8 ovarian) | TGI (HCC-2998 colon) | TGI (MCF7 breast) | TGI (PC-3 prostate) | TGI (OVCAR-4 ovarian) | TGI (A549 NSCLC) | TGI (RXF 393 renal) | TGI (SK-OV-3 ovarian) | TGI (OVCAR-3 ovarian) | TGI (KM12 colon) | TGI (HL-60(TB) leukemia) | TGI (NCI/ADR-RES ovarian) | TGI (UACC-257 melanoma) | TGI (MDA-MB-231 breast) | TGI (HCT-116 colon) | TGI (T-47D breast) | TGI (MALME-3M melanoma) |
| --- | --- | --- | --- | --- | --- | --- | --- | --- | --- | --- | --- | --- | --- | --- | --- | --- | --- | --- | --- |
| O=C(NCCN1CCCCC1)c1cccc(I)c1 | > 100 µM | > 100 µM | > 100 µM | > 100 µM | > 100 µM | > 100 µM | > 100 µM | > 100 µM | > 100 µM | > 100 µM | > 100 µM | > 100 µM | > 100 µM | > 100 µM |  |  |  |  |  |
| O=c1c(Sc2c(SCSc3cnc4ccccc4c3Sc3c[nH]c4ccccc4c3=O)cnc3ccccc23)c[nH]c2ccccc12 | > 100 µM | > 100 µM | > 100 µM | > 100 µM |  |  | > 100 µM |  |  |  | > 100 µM | > 100 µM | > 100 µM | > 100 µM | > 100 µM | > 100 µM | > 100 µM | > 100 µM |  |
| Cc1ccc(S(=O)(=O)N/N=C2/CCC3(O)CC2(C)CCC2[C@H]3CC2(C)C)cc1 (some centres not stated) | > 100 µM | > 100 µM | > 100 µM |  | > 100 µM | 65.1 µM | > 100 µM | > 100 µM |  | > 100 µM | > 100 µM | > 100 µM | > 100 µM | > 100 µM | > 100 µM |  | 75.7 µM | > 100 µM | > 100 µM |
| CCCCCCCCCCCCCCCCNC(=O)/C(=C\c1ccc(Cl)c(Cl)c1)NC(=O)c1ccccc1 | > 100 µM | 48.8 µM | > 100 µM |  | 59.1 µM | 74.6 µM | 84.4 µM | > 100 µM | 31.8 µM | > 100 µM | > 100 µM | > 100 µM | 22 µM | > 100 µM | > 100 µM | 40.3 µM | > 100 µM | > 100 µM | > 100 µM |
| CCSC1=N/C(=C\c2ccco2)C(=O)N1 | > 100 µM | > 100 µM | > 100 µM |  | > 100 µM | > 100 µM |  | > 100 µM |  | > 100 µM | > 100 µM | > 100 µM |  | > 100 µM |  | > 100 µM | > 100 µM |  | > 100 µM |
| CC1=CCC(C(C)(C)NC(=O)c2ccccc2)C/C1=N/O (configuration not stated) | > 100 µM | > 100 µM | > 100 µM | > 100 µM | > 100 µM | > 100 µM | > 100 µM | > 100 µM |  | > 100 µM | > 100 µM | > 100 µM | > 100 µM |  | > 100 µM | > 100 µM | > 100 µM | > 100 µM |  |
| CCc1n[nH]c(=O)n1/N=C(\C)c1ccccc1 | > 100 µM | > 100 µM | > 100 µM |  | > 100 µM | > 100 µM | > 100 µM | > 100 µM | > 100 µM |  | > 100 µM | > 100 µM | > 100 µM | > 100 µM | > 100 µM | > 100 µM | > 100 µM | > 100 µM | > 100 µM |
| O=C(Cn1c2ccc(Br)cc2c2nc3ccccc3nc21)Nc1ccccc1 | > 100 µM | > 100 µM | 28.4 µM | > 100 µM |  | 46.5 µM | 99.4 µM | 38.2 µM | 68.7 µM | > 100 µM | > 100 µM | > 100 µM |  | 45.1 µM | > 100 µM | 34.2 µM | 27.6 µM | 57.1 µM | 79 µM |
| O=[N+]([O-])c1ccc(-c2nn3c(C45CC6CC(CC(C6)C4)C5)nnc3s2)c(Cl)c1 | > 100 µM | > 100 µM | > 100 µM | > 100 µM |  | > 100 µM | > 100 µM | > 100 µM | > 100 µM | > 100 µM | > 100 µM | > 100 µM | > 100 µM | > 100 µM |  | > 100 µM | > 100 µM | > 100 µM | > 100 µM |
| COc1ccccc1N/C(SCc1ccccc1)=C(/C(Cl)=C(Cl)Cl)[N+](=O)[O-] | 39 µM |  | 27.4 µM |  | > 100 µM | > 100 µM | 47.7 µM | > 100 µM |  | > 100 µM | 40.7 µM | > 100 µM |  | 78.8 µM | > 100 µM | 48.4 µM | > 100 µM | 65.6 µM | 38.7 µM |
| CO/C(=N\N=C\c1ccc(Cl)c(Cl)c1)c1ccncc1 | > 10 µM | > 10 µM | > 10 µM | > 10 µM | > 10 µM | > 10 µM |  | > 10 µM | > 10 µM | > 10 µM | > 10 µM | > 10 µM | > 10 µM | > 10 µM |  |  | > 10 µM | > 10 µM | > 10 µM |
| COc1ccc(-c2nc(Nc3ccccc3)sc2Cc2sc(Nc3ccccc3)nc2-c2ccc(OC)cc2)cc1 | > 100 µM | > 100 µM | > 100 µM | > 100 µM | > 100 µM |  | > 100 µM | > 100 µM | 26.8 µM | > 100 µM | > 100 µM | > 100 µM | 52 µM | > 100 µM | > 100 µM | > 100 µM | > 100 µM | > 100 µM | > 100 µM |
| COC(=O)C(=O)C(C(=O)C(=O)Nc1ccc(C)cc1C)c1nc2ccc(Cl)cc2[nH]c1=O (configuration not stated) | > 100 µM | > 100 µM | > 100 µM | > 100 µM | > 100 µM | > 100 µM | > 100 µM | > 100 µM | > 100 µM | > 100 µM | > 100 µM | > 100 µM | > 100 µM | > 100 µM | > 100 µM | > 100 µM | > 100 µM |  |  |
| COc1ccc(-c2nc(-c3cnccn3)n(C3OC(CO)C(O)C3O)n2)cc1 (configuration not stated) | > 10 µM | > 10 µM | > 10 µM | > 10 µM | > 10 µM | > 10 µM | > 10 µM | > 10 µM |  | > 10 µM | > 10 µM | > 10 µM | > 10 µM | > 10 µM | > 10 µM |  |  |  | > 10 µM |

Reference: PubChem BioAssay (NCI)
